Assay results: ChEMBL document CHEMBL1158236, “Two new naphthoquinones with antiviral activity from Rhinacanthus nasutus” (J Nat Prod, 1996)
≈ marks a conversion by molar mass, not a printed value.

What was measured:
Assay type in all cases: functional, organism-based
Murid betaherpesvirus 1 [1] = assay: Antiviral activity against mouse cytomegalovirus by plaque-neutralization assay
Human betaherpesvirus 5 = assay: Antiviral activity against human cytomegalovirus by plaque-neutralization assay
Murid betaherpesvirus 1 [2] = assay: Antiviral activity against mouse cytomegalovirus assessed as effect on virus-induced cytopathic effect
Human alphaherpesvirus 2 = assay: Antiviral activity against herpes simplex virus type 2 assessed as effect on virus-induced cytopathic effect
Influenza A virus = assay: Antiviral activity against influenza A virus by hemadsorption inhibition assay
[3] = test system: Respiratory syncytial virus; assay: Antiviral activity against respiratory syncytial virus assessed as effect on virus-induced cytopathic effect; conditions: human respiratory syncytial virus

Row | Compound | EC50 (Murid betaherpesvirus 1 [1]) | EC50 (Human betaherpesvirus 5) | EC50 (Murid betaherpesvirus 1 [2]) | further results
1 | CC(C)(COC(=O)c1ccc2c(c1)OCO2)CC1=C(O)C(=O)c2ccccc2C1=O | 9.5 µg/mL (≈ 23.3 µM) | 0.22 µg/mL (≈ 0.539 µM) | 9.5 µg/mL (≈ 23.3 µM) | –
2 | Nc1nc2c(ncn2COCCO)c(=O)[nH]1 [ACYCLOVIR] | – | – | – | EC50 (Human alphaherpesvirus 2): 2.3 µg/mL (≈ 10.2 µM)
3 | NC12CC3CC(CC(C3)C1)C2 [AMANTADINE] | – | – | – | EC50 (Influenza A virus): 0.054 µg/mL (≈ 0.357 µM)
4 | Nc1nc2c(ncn2COC(CO)CO)c(=O)[nH]1 [GANCICLOVIR] | 13.8 µg/mL (≈ 54.1 µM) | 3.4 µg/mL (≈ 13.3 µM) | 5 µg/mL (≈ 19.6 µM) | –
5 | C/C=C(\C)CC/C=C(\C)C(=O)OCC(C)(C)CC1=C(O)C(=O)c2ccccc2C1=O [RHINACANTHIN C] | 0.57 µg/mL (≈ 1.39 µM) | 0.02 µg/mL (≈ 0.0487 µM) | 1.1 µg/mL (≈ 2.68 µM) | –
6 | NC(=O)c1ncn([C@@H]2O[C@H](CO)[C@@H](O)[C@H]2O)n1 [RIBAVIRIN] | – | – | – | EC50 [3]: 1.8 µg/mL (≈ 7.37 µM)
